Experiments:
[1] = Thermal activity by microcalorimetry; format: physicochemical; settings: microcalorimeter at 25° C., scanned from about 30% to about 90% relative humidity
Protocol: To confirm that the salbutamol sulphate had been converted to the desired low energy, crystalline form i.e. had been annealed, the thermal activity and the water content of the treated salbutamol sulphate compared to untreated salbutamol sulphate was measured using standard microcalorimetry techniques and moisture sorption techniques respectively. A Hart Scientific Microcalorimeter (model 4400) was operated at 25° C. with a water adsorption unit and scanned from about 30% to about 90% relative humidity over a 11.5 hour period. Thermal equilibration time was 1 to 2 hours.

[2] = Water content by vacuum balance moisture sorption; format: physicochemical; settings: for water content: typical/normal value stated in description
Protocol: To confirm that the salbutamol sulphate had been converted to the desired low energy, crystalline form i.e. had been annealed, the thermal activity and the water content of the treated salbutamol sulphate compared to untreated salbutamol sulphate was measured using standard microcalorimetry techniques and moisture sorption techniques respectively.
A VTI Corp vacuum balance moisture sorption apparatus (model MB300G) was operated at 25° C., and scanned from about 20% to about 90% relative humidity, total scan time about 15 hours. Drying was accomplished at 35° C. under vacuum for approximately 1 hour before the equilibrium condition used for the scans of 3 micrograms/6 minutes was achieved. This same equilibrium weight change criterion was used for the sorption measurements.

[3] = listed as Particulate salbutamol sulphate

Substance | thermal activity (heat rate) [1] | thermal activity (heat rate) [1, 3] | moisture content (moisture sorption profile, % weight gain against relative humidity) ([2]; 25° C., scanned from about 20% to about 90% relative humidity) | water content [2, 3] [% by weight] | water content ([2]; listed as annealed salbutamol sulphate)
salbutamol sulphate [Example 2] | lack significant thermal activity | – | – | – | –
salbutamol sulphate [untreated salbutamol sulphate, reference compound] | exothermic rise in heat rate up to approximately 55% relative humidity followed by a large endothermic response | significantly greater thermal activity | significantly larger moisture content | ≥ 0.5 | –
salbutamol sulphate [Example 4] | lacks significant thermal activity | – | – | – | –
salbutamol sulphate [Example 3] | lack significant thermal activity | – | – | – | –
salbutamol sulphate [treated salbutamol sulphate] | absent | – | – | – | less than 0.4 % by weight

Source: patent US6656453B2, “Medicaments” (SmithKline Beecham Corporation, priority 1995, dated 2003)
